In patent US9850283B2, “Macrocyclic inhibitors of the PD-1/PD-L1 and CD80(B7-1)/PD-L1 protein/protein interactions” (BRISTOL-MYERS SQUIBB COMPANY, priority 2013, dated 2017):
Like-named read-outs stand apart in the source and are kept apart here. Positions of bridges follow the written chain, without caps; N, C: chain ends. Non-standard residues stand in square brackets, D forms with d. Residues, ends and D or L forms follow the SMILES beside them. Hyp = O=C(O)[C@@H]1C[C@@H](O)CN1; NMeNle = CCCC[C@H](NC)C(=O)O; NMeA = CN[C@@H](C)C(=O)O; Dab = NCC[C@H](N)C(=O)O; Dap = NC[C@H](N)C(=O)O

How the values were obtained:
[1] = biological target: T1, LK35.2-hPD-L1 cells / PE-labeled PD-1-Ig (Homo sapiens, UniProt Q9NZQ7); assay: LK35.2-hPD-L1 cell binding high-content screening assay; type: cell-based; conditions: cell binding assay, cell line not given
T1 construct: expressed in transfected cells; host or cells: LK35.2 mouse B cell line
T1 sequence (Q9NZQ7 19-290): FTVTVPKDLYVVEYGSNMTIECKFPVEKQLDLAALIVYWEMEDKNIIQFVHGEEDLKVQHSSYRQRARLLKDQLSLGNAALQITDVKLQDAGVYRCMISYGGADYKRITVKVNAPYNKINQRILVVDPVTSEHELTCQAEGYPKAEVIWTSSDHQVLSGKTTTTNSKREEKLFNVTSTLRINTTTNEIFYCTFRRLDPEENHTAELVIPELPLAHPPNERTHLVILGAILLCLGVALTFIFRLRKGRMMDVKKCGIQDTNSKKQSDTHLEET
How it was run: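 Binding of PE-conjugated human PD-1-Ig (1 nM final) to human PD-L1 stably expressed on a mouse B-cell line (LK35.2) was measured by high-content imaging after washes. Compound and labeled PD-1-Ig were co-incubated 1 h at 37 °C with cells in RPMI/10% FCS.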

[2] = biological target: T2, Human PD-L1/PD-1 (Homo sapiens, UniProt Q9NZQ7); assay: HTRF PD-1-Ig/PD-L1-His binding assay (human PD-L1); conditions: cluster symbol; read-out: HTRF IC50 cluster
T2 construct: made in house; host or cells: HEK293T
T2 sequence (Q9NZQ7 with tags, fused parts or gaps): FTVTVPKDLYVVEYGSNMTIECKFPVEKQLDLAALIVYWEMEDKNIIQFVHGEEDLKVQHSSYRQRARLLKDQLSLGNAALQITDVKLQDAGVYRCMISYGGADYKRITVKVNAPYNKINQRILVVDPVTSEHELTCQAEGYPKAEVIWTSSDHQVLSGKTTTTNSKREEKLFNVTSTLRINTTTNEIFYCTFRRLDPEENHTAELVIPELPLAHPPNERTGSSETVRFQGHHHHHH
How it was run: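 Interaction of Fc-tagged soluble PD-1 with His-tagged soluble PD-L1 is monitored by time-resolved FRET. Donor is europium cryptate anti-Ig (1 nM final) and acceptor is APC anti-His (20 nM final). Assay buffer is dPBS with 0.1% BSA and 0.05% Tween-20.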

[3] = cluster symbol, read-out: CBA IC50 cluster

| SMILES | IC50 [1, 3] [nM] | IC50 [2] [nM] | IC50 ([1]; value given instead of cluster, read-out: CBA IC50 value) [nM] |
| --- | --- | --- | --- |
| CCCC[C@H]1C(=O)N(C)[C@@H](CCCC)C(=O)N[C@@H](CC(C)C)C(=O)N[C@H](C(=O)NCC(N)=O)CSCC(=O)N[C@@H](Cc2ccc(O)cc2)C(=O)N(C)[C@@H](C)C(=O)N[C@@H](CC(N)=O)C(=O)N2CCC[C@H]2C(=O)N[C@@H](Cc2c[nH]cn2)C(=O)N[C@@H](CCCCN)C(=O)N2C[C@H](O)C[C@H]2C(=O)N[C@@H](Cc2c[nH]c3ccccc23)C(=O)N[C@@H](CCCCN)C(=O)N[C@@H](Cc2c[nH]c3ccccc23)C(=O)N1C [Example 5089] ({CH2CO}-Y[NMeA]NPHK[Hyp]WKW[NMeNle][NMeNle]LCG-NH2; thioether N-14) | 0.158 to 4.71 | 0.385 to 6.74 |  |
| CCCC[C@H]1C(=O)N(C)[C@@H](CCCC)C(=O)N[C@@H](CC(C)C)C(=O)N[C@H](C(=O)NCC(N)=O)CSCC(=O)N[C@@H](Cc2ccc(O)cc2)C(=O)N(C)[C@@H](C)C(=O)N[C@@H](CCN)C(=O)N2CCC[C@H]2C(=O)N[C@@H](Cc2c[nH]cn2)C(=O)N[C@@H](CCC(=O)O)C(=O)N2C[C@H](O)C[C@H]2C(=O)N[C@@H](Cc2c[nH]c3ccccc23)C(=O)N[C@@H](CCN)C(=O)N[C@@H](Cc2c[nH]c3ccccc23)C(=O)N1C [Example 5090] ({CH2CO}-Y[NMeA][Dab]PHE[Hyp]W[Dab]W[NMeNle][NMeNle]LCG-NH2; thioether N-14) | 4.78 to 72.9 | 0.385 to 6.74 |  |
| CCCC[C@H]1C(=O)N(C)[C@@H](CCCC)C(=O)N[C@@H](CCN)C(=O)N[C@H](C(=O)NCC(N)=O)CSCC(=O)N[C@@H](Cc2ccc(O)cc2)C(=O)N(C)[C@@H](C)C(=O)N[C@@H](CCN)C(=O)N2CCC[C@H]2C(=O)N[C@@H](Cc2c[nH]cn2)C(=O)N[C@@H](CCC(=O)O)C(=O)N2C[C@H](O)C[C@H]2C(=O)N[C@@H](Cc2c[nH]c3ccccc23)C(=O)N[C@@H](C(C)C)C(=O)N[C@@H](Cc2c[nH]c3ccccc23)C(=O)N1C [Example 5091] ({CH2CO}-Y[NMeA][Dab]PHE[Hyp]WVW[NMeNle][NMeNle][Dab]CG-NH2; thioether N-14) | 4.78 to 72.9 | 6.76 to 30.3 |  |
| CCCC[C@H]1C(=O)N(C)[C@@H](CCCC)C(=O)N[C@@H](CO)C(=O)N[C@H](C(=O)NCC(N)=O)CSCC(=O)N[C@@H](Cc2ccc(O)cc2)C(=O)N(C)[C@@H](C)C(=O)N[C@@H](CCN)C(=O)N2CCC[C@H]2C(=O)N[C@@H](Cc2c[nH]cn2)C(=O)N[C@@H](CCC(=O)O)C(=O)N2C[C@H](O)C[C@H]2C(=O)N[C@@H](Cc2c[nH]c3ccccc23)C(=O)N[C@@H](C(C)C)C(=O)N[C@@H](Cc2c[nH]c3ccccc23)C(=O)N1C [Example 5097] ({CH2CO}-Y[NMeA][Dab]PHE[Hyp]WVW[NMeNle][NMeNle]SCG-NH2; thioether N-14) |  | 6.76 to 30.3 | 74.3 |
| CCCC[C@H]1C(=O)N(C)[C@@H](CCCC)C(=O)N[C@@H](CN)C(=O)N[C@H](C(=O)NCC(N)=O)CSCC(=O)N[C@@H](Cc2ccc(O)cc2)C(=O)N(C)[C@@H](C)C(=O)N[C@@H](CC(=O)O)C(=O)N2CCC[C@H]2C(=O)N[C@@H](Cc2c[nH]cn2)C(=O)N[C@@H](CCC(N)=O)C(=O)N2C[C@H](O)C[C@H]2C(=O)N[C@@H](Cc2c[nH]c3ccccc23)C(=O)N[C@@H](CO)C(=O)N[C@@H](Cc2c[nH]c3ccccc23)C(=O)N1C [Example 5101] ({CH2CO}-Y[NMeA]DPHQ[Hyp]WSW[NMeNle][NMeNle][Dap]CG-NH2; thioether N-14) | 0.158 to 4.71 | 0.385 to 6.74 |  |
| CCCC[C@H]1C(=O)N(C)[C@@H](CCCC)C(=O)N[C@@H](CC(=O)O)C(=O)N[C@H](C(=O)NCC(N)=O)CSCC(=O)N[C@@H](Cc2ccc(O)cc2)C(=O)N(C)[C@@H](C)C(=O)N[C@@H](CC(N)=O)C(=O)N2CCC[C@H]2C(=O)N[C@@H](Cc2c[nH]cn2)C(=O)N[C@@H](CCC(N)=O)C(=O)N2C[C@H](O)C[C@H]2C(=O)N[C@@H](Cc2c[nH]c3ccccc23)C(=O)N[C@@H](CO)C(=O)N[C@@H](Cc2c[nH]c3ccccc23)C(=O)N1C [Example 5103] ({CH2CO}-Y[NMeA]NPHQ[Hyp]WSW[NMeNle][NMeNle]DCG-NH2; thioether N-14) | 4.78 to 72.9 | 6.76 to 30.3 |  |
| CCCC[C@H]1C(=O)N(C)[C@@H](CCCC)C(=O)N[C@@H](CCN)C(=O)N[C@H](C(=O)NCC(N)=O)CSCC(=O)N[C@@H](Cc2ccc(O)cc2)C(=O)N(C)[C@@H](C)C(=O)N[C@@H](CCN)C(=O)N2CCC[C@H]2C(=O)N[C@@H](Cc2c[nH]cn2)C(=O)N[C@@H](CCC(=O)O)C(=O)N2C[C@H](O)C[C@H]2C(=O)N[C@@H](Cc2c[nH]c3ccccc23)C(=O)N[C@@H](CCN)C(=O)N[C@@H](Cc2c[nH]c3ccccc23)C(=O)N1C [Example 5104] ({CH2CO}-Y[NMeA][Dab]PHE[Hyp]W[Dab]W[NMeNle][NMeNle][Dab]CG-NH2; thioether N-14) | 0.158 to 4.71 | 0.385 to 6.74 |  |

Now from value to molecule:

| IC50 [1, 3] [nM] | IC50 [2] [nM] | IC50 ([1]; value given instead of cluster, read-out: CBA IC50 value) [nM] | SMILES |
| --- | --- | --- | --- |
| 4.78 to 72.9 | 6.76 to 30.3 |  | CCCC[C@H]1C(=O)N(C)[C@@H](CCCC)C(=O)N[C@@H](CCCNC(=N)N)C(=O)N[C@H](C(=O)NCC(N)=O)CSCC(=O)N[C@@H](Cc2ccc(O)cc2)C(=O)N(C)[C@@H](C)C(=O)N[C@@H](CCN)C(=O)N2CCC[C@H]2C(=O)N[C@@H](Cc2c[nH]cn2)C(=O)N[C@@H](CCC(N)=O)C(=O)N2C[C@H](O)C[C@H]2C(=O)N[C@@H](Cc2c[nH]c3ccccc23)C(=O)N[C@@H](CO)C(=O)N[C@@H](Cc2c[nH]c3ccccc23)C(=O)N1C [Example 5092] ({CH2CO}-Y[NMeA][Dab]PHQ[Hyp]WSW[NMeNle][NMeNle]RCG-NH2; thioether N-14) |
| 4.78 to 72.9 | 0.385 to 6.74 |  | CCCC[C@H]1C(=O)N(C)[C@@H](CCCC)C(=O)N[C@@H](CCCNC(=N)N)C(=O)N[C@H](C(=O)NCC(N)=O)CSCC(=O)N[C@@H](Cc2ccc(O)cc2)C(=O)N(C)[C@@H](C)C(=O)N[C@@H](CCN)C(=O)N2CCC[C@H]2C(=O)N[C@@H](Cc2c[nH]cn2)C(=O)N[C@@H](CC(C)C)C(=O)N2C[C@H](O)C[C@H]2C(=O)N[C@@H](Cc2c[nH]c3ccccc23)C(=O)N[C@@H](CO)C(=O)N[C@@H](Cc2c[nH]c3ccccc23)C(=O)N1C [Example 5094] ({CH2CO}-Y[NMeA][Dab]PHL[Hyp]WSW[NMeNle][NMeNle]RCG-NH2; thioether N-14) |
| 0.158 to 4.71 | 0.385 to 6.74 |  | CCCC[C@H]1C(=O)N(C)[C@@H](CCCC)C(=O)N[C@@H](CC(C)C)C(=O)N[C@H](C(=O)NCC(N)=O)CSCC(=O)N[C@@H](Cc2ccc(O)cc2)C(=O)N(C)[C@@H](C)C(=O)N[C@@H](CC(=O)O)C(=O)N2CCC[C@H]2C(=O)N[C@@H](Cc2c[nH]cn2)C(=O)N[C@@H](CCCCN)C(=O)N2C[C@H](O)C[C@H]2C(=O)N[C@@H](Cc2c[nH]c3ccccc23)C(=O)N[C@@H](CCCCN)C(=O)N[C@@H](Cc2c[nH]c3ccccc23)C(=O)N1C [Example 5095] ({CH2CO}-Y[NMeA]DPHK[Hyp]WKW[NMeNle][NMeNle]LCG-NH2; thioether N-14) |
| 0.158 to 4.71 | 0.385 to 6.74 |  | CCCC[C@H]1C(=O)N(C)[C@@H](CCCC)C(=O)N[C@@H](CC(=O)O)C(=O)N[C@H](C(=O)NCC(N)=O)CSCC(=O)N[C@@H](Cc2ccc(O)cc2)C(=O)N(C)[C@@H](C)C(=O)N[C@@H](CC(=O)O)C(=O)N2CCC[C@H]2C(=O)N[C@@H](Cc2c[nH]cn2)C(=O)N[C@@H](CCCCN)C(=O)N2C[C@H](O)C[C@H]2C(=O)N[C@@H](Cc2c[nH]c3ccccc23)C(=O)N[C@@H](CCCCN)C(=O)N[C@@H](Cc2c[nH]c3ccccc23)C(=O)N1C [Example 5096] ({CH2CO}-Y[NMeA]DPHK[Hyp]WKW[NMeNle][NMeNle]DCG-NH2; thioether N-14) |
| 4.78 to 72.9 | 0.385 to 6.74 |  | CCCC[C@H]1C(=O)N(C)[C@@H](CCCC)C(=O)N[C@@H](CCC(=O)O)C(=O)N[C@H](C(=O)NCC(N)=O)CSCC(=O)N[C@@H](Cc2ccc(O)cc2)C(=O)N(C)[C@@H](C)C(=O)N[C@@H](CC(=O)O)C(=O)N2CCC[C@H]2C(=O)N[C@@H](Cc2c[nH]cn2)C(=O)N[C@@H](CCCCN)C(=O)N2C[C@H](O)C[C@H]2C(=O)N[C@@H](Cc2c[nH]c3ccccc23)C(=O)N[C@@H](CO)C(=O)N[C@@H](Cc2c[nH]c3ccccc23)C(=O)N1C [Example 5098] ({CH2CO}-Y[NMeA]DPHK[Hyp]WSW[NMeNle][NMeNle]ECG-NH2; thioether N-14) |
| 0.158 to 4.71 | 6.76 to 30.3 |  | CCCC[C@H]1C(=O)N(C)[C@@H](CCCC)C(=O)N[C@@H](CCC(=O)O)C(=O)N[C@H](C(=O)NCC(N)=O)CSCC(=O)N[C@@H](Cc2ccc(O)cc2)C(=O)N(C)[C@@H](C)C(=O)N[C@@H](CC(N)=O)C(=O)N2CCC[C@H]2C(=O)N[C@@H](Cc2c[nH]cn2)C(=O)N[C@@H](CCCCN)C(=O)N2C[C@H](O)C[C@H]2C(=O)N[C@@H](Cc2c[nH]c3ccccc23)C(=O)N[C@@H](CCCCN)C(=O)N[C@@H](Cc2c[nH]c3ccccc23)C(=O)N1C [Example 5100] ({CH2CO}-Y[NMeA]NPHK[Hyp]WKW[NMeNle][NMeNle]ECG-NH2; thioether N-14) |
| 4.78 to 72.9 | 6.76 to 30.3 |  | CCCC[C@H]1C(=O)N(C)[C@@H](CCCC)C(=O)N[C@@H](CCCNC(=N)N)C(=O)N[C@H](C(=O)NCC(N)=O)CSCC(=O)N[C@@H](Cc2ccc(O)cc2)C(=O)N(C)[C@@H](C)C(=O)N[C@@H](CCCCN)C(=O)N2CCC[C@H]2C(=O)N[C@@H](Cc2c[nH]cn2)C(=O)N[C@@H](CC(=O)O)C(=O)N2C[C@H](O)C[C@H]2C(=O)N[C@@H](Cc2c[nH]c3ccccc23)C(=O)N[C@@H](CO)C(=O)N[C@@H](Cc2c[nH]c3ccccc23)C(=O)N1C [Example 5102] ({CH2CO}-Y[NMeA]KPHD[Hyp]WSW[NMeNle][NMeNle]RCG-NH2; thioether N-14) |
